# Measured values: the supplement of paper PMC11208160
# Assay: recombinant barcode read abundance after kanamycin selection (control-corrected) (log10(CPM+1)); higher = more efficient recombination; sequences stand for … in AGTGCAGAGAAAATCGGCCAGTTTTCTCTGCCTGCAGTCCGCATGCCGT…AGATTTATGCAGCGGACTGCCTTTCTCCCAAAGTGATAAACCGGACAGTATCATGGACCGGTTTTCCCGGTAATCCGTATTTGCAAGGTTGGTTTCACT; site = the 11-nt target
# In short: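 Oligos holding a promoter, target, barcode and the J23119-driven first 104 bases of the bridge RNA were Gibson-cloned into a vector that supplied the other 73 bp plus a T7-inducible recombinase. This library was co-electroporated with a donor plasmid into E. coli. Two replicates went on chloramphenicol/ampicillin LB agar (control) and two on chloramphenicol/ampicillin/kanamycin with 0.1 mM IPTG. Recombination efficiency is read from averaged, control-corrected barcode counts per million at recombinant junctions, reported as log10(CPM+1).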
# 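Further: IS621 recombinase and bridge RNA in Escherichia coli cells.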
row,Sequence,recombinant barcode read abundance (log10)
1,CCAAAGGCTTGGGTTCTAACCTGTTGCCT (site CCTAATGCTAG),0.412
2,CCAACACCTTGGGTTCTAACCTGTTGCCT (site CCAACACCTAG),0.465
3,CCAACACCTTGGGTTCTAACCTGTTGCCT (site CCAAGTCCTAG),0.0965
4,CCAAGCTCTTGGGTTCTAACCTGTTGCCT (site CCAAGCACTAG),0.0905
5,CCAAGCTCTTGGGTTCTAACCTGTTGCCT (site CCAAGCCCTAG),0.177
6,CCAAGCTCTTGGGTTCTAACCTGTTGCCT (site CCAAGCGCTAG),0.214
7,CCAAGCTCTTGGGTTCTAACCTGTTGCCT (site CCAAGCTCTAG),1.32
8,CCAAGGCCTTGGGTTCTAACCTGTTGCCT (site ACAAGGCCTAG),0.161
9,CCAAGGCCTTGGGTTCTAACCTGTTGCCT (site CCAAGGCCTAG),0.0291
10,CCAAGGCCTTGGGTTCTAACCTGTTGCCT (site GCAAGGCCTAG),0.28
11,CCAAGGCCTTGGGTTCTAACCTGTTGCCT (site TCAAGGCCTAG),0.0686
12,CCAAGTCCTTGGGTTCTAACCTGTTGCCT (site CCAACACCTAG),0.0147
13,CCAAGTCCTTGGGTTCTAACCTGTTGCCT (site CCAAGTCCTAG),0.892
14,CCAATCTCTTGGGTTCTAACCTGTTGCCT (site CCAATCTCTAG),0.276
15,CCAATCTCTTGGGTTCTAACCTGTTGCCT (site CGTATCTCTAG),0.0477
16,CCACCTTCTTGGGTTCTAACCTGTTGCCT (site AGTTGGCCTTC),0.161
17,CCACCTTCTTGGGTTCTAACCTGTTGCCT (site CCACCTTCTAG),0.0666
18,CCACGAACTTGGGTTCTAACCTGTTGCTT (site CCAAGTACTAA),0
19,CCACGAACTTGGGTTCTAACCTGTTGCTT (site CCACGAACTAA),0.0915
20,CCACGGACTTGGGTTCTAACCTGTTGCCT (site CCAAGGACTAG),0.143
21,CCACGGACTTGGGTTCTAACCTGTTGCCT (site CCACGGACTAG),0.651
22,CCACGGACTTGGGTTCTAACCTGTTGCCT (site CCAGGGACTAG),0.129

row,Sequence,recombinant barcode read abundance (log10)
1,CCACGGACTTGGGTTCTAACCTGTTGCCT (site CCATGGACTAG),0.0265
2,CCATACTCTTGGGTTCTAACCTGTTGCTT (site CCATACTCTAA),1.17
3,CCATACTCTTGGGTTCTAACCTGTTGCTT (site CCATGGTCTAA),0
4,CCATCCACTTGGGTTCTAACCTGTTGCCT (site CCATCCACTAG),0.318
5,CCATCCACTTGGGTTCTAACCTGTTGCCT (site TCATCCGCTAG),0.0523
6,CCATGAACTTGGGTTCTAACCTGTTGCCA (site CCATCAACTAG),0.131
7,CCATGAACTTGGGTTCTAACCTGTTGCCA (site CCATGAACTTG),0.0609
8,CCGATCCCTTGGGTTCTAACCTGTTGCCT (site CAGATCCCTAG),0.348
9,CCGATCCCTTGGGTTCTAACCTGTTGCCT (site CCGATCCCTAG),1.4
10,CCGATCCCTTGGGTTCTAACCTGTTGCCT (site CGGATCCCTAG),0.213
11,CCGATCCCTTGGGTTCTAACCTGTTGCCT (site CTGATCCCTAG),0.107
12,CCGCACACTTGGGTTCTAACCTGTTGCCT (site ACGCACACTAG),0.191
13,CCGCACACTTGGGTTCTAACCTGTTGCCT (site CCGCACACTAG),1.8
14,CCGCACACTTGGGTTCTAACCTGTTGCCT (site GCGCACACTAG),0.213
15,CCGCACACTTGGGTTCTAACCTGTTGCCT (site TCGCACACTAG),0.305
16,CCGCGAGCTTGGGTTCTAACCTGTTGCCG (site CCGCGAGCTCG),0.599
17,CCGCGAGCTTGGGTTCTAACCTGTTGCCG (site GATGTGCCTAC),0.137
18,CCGCTAGCTTGGGTTCTAACCTGTTGCCT (site ACGCTAGCTAG),0.0362
19,CCGCTAGCTTGGGTTCTAACCTGTTGCCT (site CCGCTAGCTAG),0.183
20,CCGCTAGCTTGGGTTCTAACCTGTTGCCT (site GCGCTAGCTAG),0.0389
21,CCGCTAGCTTGGGTTCTAACCTGTTGCCT (site TCGCTAGCTAG),0.046
22,CCGCTTACTTGGGTTCTAACCTGTTGCCT (site CCGCTCGCTAG),0.0115

row,Sequence,recombinant barcode read abundance (log10)
1,CCGCTTACTTGGGTTCTAACCTGTTGCCT (site CCGCTTACTAG),0.0232
2,CCGGACCCTTGGGTTCTAACCTGTTGCCT (site CCGGACCCTAG),1.88
3,CCGGACCCTTGGGTTCTAACCTGTTGCCT (site GCGGACGCTAG),0.232
4,CCGGAGCCTTGGGTTCTAACCTGTTGCCT (site CCGAAGCCTAG),1.42
5,CCGGAGCCTTGGGTTCTAACCTGTTGCCT (site CCGCAGCCTAG),0.271
6,CCGGAGCCTTGGGTTCTAACCTGTTGCCT (site CCGGAGCCTAG),2.41
7,CCGGAGCCTTGGGTTCTAACCTGTTGCCT (site CCGTAGCCTAG),0.413
8,CCGGGGTCTTGGGTTCTAACCTGTTGCCT (site ACGGGGTCTAG),0.789
9,CCGGGGTCTTGGGTTCTAACCTGTTGCCT (site CCGGGGTCTAG),1.76
10,CCGGGGTCTTGGGTTCTAACCTGTTGCCT (site GCGGGGTCTAG),0.0665
11,CCGGGGTCTTGGGTTCTAACCTGTTGCCT (site TCGGGGTCTAG),0.0922
12,CCGGGTTCTTGGGTTCTAACCTGTTGCCT (site CAGGGTTCTAG),0.145
13,CCGGGTTCTTGGGTTCTAACCTGTTGCCT (site CCGGGTTCTAG),1.79
14,CCGGGTTCTTGGGTTCTAACCTGTTGCCT (site CGGGGTTCTAG),0.16
15,CCGGGTTCTTGGGTTCTAACCTGTTGCCT (site CTGGGTTCTAG),0.154
16,CCGGTCCCTTGGGTTCTAACCTGTTGCAG (site CCGGTCCCTCT),2.07
17,CCGGTCCCTTGGGTTCTAACCTGTTGCAG (site GGACAGTCTAC),0.307
18,CCGTAAACTTGGGTTCTAACCTGTTGCCT (site CCGTAAACTAG),0.35
19,CCGTAAACTTGGGTTCTAACCTGTTGCCT (site CCGTAACCTAG),0.0417
20,CCGTAAACTTGGGTTCTAACCTGTTGCCT (site CCGTAAGCTAG),0.418
21,CCGTAAACTTGGGTTCTAACCTGTTGCCT (site CCGTAATCTAG),0.0331
22,CCGTAACCTTGGGTTCTAACCTGTTGCCT (site CCGTAAACTAG),0.149

row,Sequence,recombinant barcode read abundance (log10)
1,CCGTAACCTTGGGTTCTAACCTGTTGCCT (site CCGTAACCTAG),1.57
2,CCGTAACCTTGGGTTCTAACCTGTTGCCT (site CCGTAAGCTAG),0.00896
3,CCGTAACCTTGGGTTCTAACCTGTTGCCT (site CCGTAATCTAG),0.237
4,CCGTAATCTTGGGTTCTAACCTGTTGCCT (site CCGTAAACTAG),0.0257
5,CCGTAATCTTGGGTTCTAACCTGTTGCCT (site CCGTAACCTAG),0.47
6,CCGTAATCTTGGGTTCTAACCTGTTGCCT (site CCGTAAGCTAG),0.211
7,CCGTAATCTTGGGTTCTAACCTGTTGCCT (site CCGTAATCTAG),0.308
8,CCGTAGCCTTGGGTTCTAACCTGTTGCCT (site CCGAAGCCTAG),0.129
9,CCGTAGCCTTGGGTTCTAACCTGTTGCCT (site CCGCAGCCTAG),0.288
10,CCGTAGCCTTGGGTTCTAACCTGTTGCCT (site CCGGAGCCTAG),0.162
11,CCGTAGCCTTGGGTTCTAACCTGTTGCCT (site CCGTAGCCTAG),1.03
12,CCGTAGTCTTGGGTTCTAACCTGTTGCCT (site CCGTACTCTAG),0.0425
13,CCGTAGTCTTGGGTTCTAACCTGTTGCCT (site CCGTAGTCTAG),0.899
14,CCGTCAACTTGGGTTCTAACCTGTTGCCT (site CCGTCAACTAG),0.226
15,CCGTCAACTTGGGTTCTAACCTGTTGCCT (site GTACTCTCTCT),0.0368
16,CCGTCATCTTGGGTTCTAACCTGTTGCCT (site CCGTCATCTAG),0.108
17,CCGTCATCTTGGGTTCTAACCTGTTGCCT (site CCGTCGTCTAG),0.234
18,CCGTGCCCTTGGGTTCTAACCTGTTGCCT (site CCGTGCCCTAG),0.676
19,CCGTGCCCTTGGGTTCTAACCTGTTGCCT (site GCGTGCCCTAG),0.0432
20,CCGTGGCCTTGGGTTCTAACCTGTTGCTT (site CCGTGGACTAG),0.0169
